What all share (assay): stopped-flow CO2 hydration assay
Holding throughout (format): biochemical

The target in experiment [1] is T1, hCA IV (Homo sapiens, UniProt P22748).
T1 construct: gene CA4; recombinant, obtained in-house
An excerpt: stopped-flow CO2 hydration assay on hCA IV

Experiment [2] has as its target T2, hCA I (Homo sapiens, UniProt P00915).
T2 construct: gene CA1; recombinant, obtained in-house; cytosolic
An excerpt:
stopped-flow CO2 hydration assay on hCA I

For experiment [3], the target named is T3, hCA II (Homo sapiens, UniProt P00918).
T3 construct: gene CA2; recombinant, obtained in-house; cytosolic
From the text:
stopped-flow CO2 hydration assay on hCA II

Each structure is given as a SMILES string.

T1 sequence (P22748 19-284): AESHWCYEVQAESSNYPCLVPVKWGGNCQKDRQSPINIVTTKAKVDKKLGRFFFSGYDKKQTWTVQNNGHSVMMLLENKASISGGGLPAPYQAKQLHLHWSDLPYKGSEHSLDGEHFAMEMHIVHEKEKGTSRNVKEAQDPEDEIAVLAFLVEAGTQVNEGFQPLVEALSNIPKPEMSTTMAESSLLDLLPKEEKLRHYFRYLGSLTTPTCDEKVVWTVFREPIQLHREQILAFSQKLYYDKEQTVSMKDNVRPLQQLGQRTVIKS
T2 sequence (P00915 2-261): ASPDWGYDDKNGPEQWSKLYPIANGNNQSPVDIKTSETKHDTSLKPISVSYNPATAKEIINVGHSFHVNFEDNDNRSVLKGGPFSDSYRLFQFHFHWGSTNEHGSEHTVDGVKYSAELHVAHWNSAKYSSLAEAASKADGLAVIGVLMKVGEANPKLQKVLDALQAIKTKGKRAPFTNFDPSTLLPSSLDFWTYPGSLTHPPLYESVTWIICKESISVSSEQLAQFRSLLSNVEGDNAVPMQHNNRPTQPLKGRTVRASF

`NS(=O)(=O)Nc1cccc(S(=O)(=O)N2CCCC(C(=O)N3CCN(C(c4ccccc4)c4ccccc4)CC3)C2)c1` (stereo not drawn) [6h, 4(1-((3-Sulfamoylaminophenyl)sulfonyl)piperidin-3-yl)(4-benzhydrylpiperazin-1-yl)methanone]: the Ki in experiment [1] was determined as 1620 nM; in experiment [2] it was 71.4 nM; in experiment [3], 911 nM.

For the molecule `NS(=O)(=O)Nc1cccc(S(=O)(=O)NCCC(=O)N2CCN(C(c3ccccc3)c3ccccc3)CC2)c1` [6b, N-(3-(4-Benzhydrylpiperazin-1-yl)-3-oxopropyl)-3-(sulfamoylamino)benzenesulfonamide], the Ki was found to be 2360 nM in experiment [1], 83.1 nM in experiment [2] and 419 nM in experiment [3].

Regarding `NS(=O)(=O)Nc1cccc(S(=O)(=O)NCCC(=O)N2CCN(C(c3ccc(F)cc3)c3ccc(F)cc3)CC2)c1` [6e, N-(3-(4-(bis(4-Fluorophenyl)methyl)piperazin-1-yl)-3-oxopropyl)-3(sulfamoylamino)benzenesulfonamide], the values for the Ki in experiment [1], in experiment [2] and in experiment [3] were 423 nM, 94 nM and 165 nM, respectively.

As to `NS(=O)(=O)Nc1ccc(S(=O)(=O)N2CCCC(C(=O)N3CCN(C(c4ccccc4)c4ccccc4)CC3)C2)cc1` (stereo not drawn) [6i, (1-((4-Sulfamoylaminophenyl)sulfonyl)piperidin-3-yl)(4-benzhydrylpiperazin-1-yl)methanone], the Ki in experiment [1] is 364 nM; in experiment [2], 153 nM; in experiment [3], 455 nM.

For `NS(=O)(=O)Nc1ccc(S(=O)(=O)NCCC(=O)N2CCN(C(c3ccc(F)cc3)c3ccc(F)cc3)CC2)cc1` [6f, N-(3-(4-(bis(4-Fluorophenyl)methyl)piperazin-1-yl)-3-oxopropyl)-4-(sulfamoylamino)benzenesulfonamide], the Ki is 202 nM in experiment [1], 63.2 nM in experiment [2] and 406 nM in experiment [3].

Regarding `NS(=O)(=O)Nc1ccccc1S(=O)(=O)N1CCCC(C(=O)N2CCN(C(c3ccccc3)c3ccccc3)CC2)C1` (stereo not drawn) [6g, (1-((2-Sulfamoylaminophenyl)sulfonyl)piperidin-3-yl)(4-benzhydrylpiperazin-1-yl)methanone], the Ki turned out to be 314 nM in experiment [1], 605 nM in experiment [2] and 89.8 nM in experiment [3].

For `NS(=O)(=O)Nc1cccc(S(=O)(=O)N2CCCC(C(=O)N3CCN(C(c4ccc(F)cc4)c4ccc(F)cc4)CC3)C2)c1` (stereo not drawn) [6k, (1-((3-Sulfamoylaminophenyl)sulfonyl)piperidin-3-yl)(4-(bis(4-fluorophenyl)methyl)piperazin-1-yl)methanone], the figures for the Ki in experiment [1], in experiment [2] and in experiment [3] were 1380 nM, 45.8 nM and 753 nM, respectively.

With `NS(=O)(=O)Nc1ccccc1S(=O)(=O)NCCC(=O)N1CCN(C(c2ccc(F)cc2)c2ccc(F)cc2)CC1` [6d, N-(3-(4-(bis(4-Fluorophenyl)methyl)piperazin-1-yl)-3-oxopropyl)-2(sulfamoylamino)benzenesulfonamide], the Ki was 117 nM in experiment [1], 660 nM in experiment [2] and 189 nM in experiment [3].

On to `NS(=O)(=O)Nc1ccc(S(=O)(=O)NCCC(=O)N2CCN(C(c3ccccc3)c3ccccc3)CC2)cc1` [6c, N-(3-(4-Benzhydrylpiperazin-1-yl)-3-oxopropyl)-4-(sulfamoylamino)benzenesulfonamide], for which the Ki was found to be 124 nM in experiment [1], 75.4 nM in experiment [2] and 439 nM in experiment [3].

On to `NS(=O)(=O)Nc1ccc(S(=O)(=O)N2CCCC(C(=O)N3CCN(C(c4ccc(F)cc4)c4ccc(F)cc4)CC3)C2)cc1` (stereo not drawn) [6l, (1-((4-Sulfamoylaminophenyl)sulfonyl)piperidin-3-yl)(4-(bis(4-fluorophenyl)methyl)piperazin-1-yl)methanone], for which the Ki was 467 nM in experiment [1], 326 nM in experiment [2] and 786 nM in experiment [3].

On to `NS(=O)(=O)Nc1ccccc1S(=O)(=O)N1CCCC(C(=O)N2CCN(C(c3ccc(F)cc3)c3ccc(F)cc3)CC2)C1` (stereo not drawn) [6j, (1-((2-Sulfamoylaminophenyl)sulfonyl)piperidin-3-yl)(4-(bis(4-fluorophenyl)methyl)piperazin-1-yl)methanone], for which the Ki in experiment [1] is 1500 nM; in experiment [2], 2750 nM; in experiment [3], 6460 nM.

Turning to `NS(=O)(=O)Nc1ccccc1S(=O)(=O)NCCC(=O)N1CCN(C(c2ccccc2)c2ccccc2)CC1` [6a, N-(3-(4-Benzhydrylpiperazin-1-yl)-3-oxopropyl)-2-(sulfamoylamino)benzenesulfonamide], the Ki amounted to 151 nM in experiment [1], 286 nM in experiment [2] and 473 nM in experiment [3].

Values taken from article PMC6151984, “Novel Sulfamide-Containing Compounds as Selective Carbonic Anhydrase I Inhibitors” (Molecules : A Journal of Synthetic Chemistry and Natural …, 2017).
